From US7368279B2, “Three dimensional bioengineered smooth muscle tissue and sphincters and methods therefor” (The Regents of The University of Michigan, priority 2004, dated 2008)

Columns and labels:
[1] = test system: association of tropomyosin with HSP27 in sphincteric smooth muscle cells; test: Immunoprecipitation/immunoblot: acetylcholine-induced association of tropomyosin with HSP27; assay type: cell-based, rat; settings: 0.1 μM acetylcholine
Procedure: (§1) Decreased association of actin with myosin and decreased association of tropomyosin with HSP27 in sphincteric smooth muscle cells from old rats (28-33 month old) was observed when compared to adult counterparts (18 months old). Whole cell lysates (WCL) from acetylcholine (0.1 μM) stimulated and unstimulated sphincteric smooth muscle cells of adult and old rats were extracted and immunoprecipitated as described previously (Somara et al, Amer. J. Physiol. 286(6): C1290-1301, 2004). Briefly, actin was immunoprecipited using an anti-actin antibody followed by immunoblotting with an anti-myosin antibody. […] To further investigate phospho-HSP27-induced reinstatement of smooth muscle cell contractile function, sphincter smooth muscle cells isolated from old rats IAS were transfected with phosphomimic-HSP27 as described previously. Whole cells lysates were extracted and immunoprecipitated as described previously (Somara et al, Amer. J. Physiol. 286(6): C1290-1301, 2004).

[2] = test system: bioengineered IAS rings; test: Isometric force of bioengineered IAS rings from adult, old and phosphomimic-HSP27 transfected old rat cells; assay type: cell-based
Procedure: To measure the passive baseline force, the differentiation media in the plate containing the bioengineered sphincter was replaced with 37° C. Krebs solution (NaCl (119 mM), KCl (4.6 mM), NaHCO3 (15 mM), CaCl2 (1.5 mM), MgCl2 (1.2 mM), […], and glucose (11 mM)) and the plate was placed on a heated aluminum platform, which maintained a temperature of 37° C. until the testing was complete. For contractility measurements, one end of the bioengineered sphincter was anchored by a stainless steel pin (10 mm×0.1 mm diameter) to the PDMS substrate within the plate, while another stainless steel pin was bent in the shape of a hook and attached by canning wax to a force transducer (resolution of 1.4 μN and range of 2mN) as previously described (Dennis et al., In Vitro Cellular & Developmental Biology Animal 36: 327-335, 2000, Macpherson et al., J Physiol 500: 523-533, 1997) and as depicted in FIG. 1 (Panels F and G). The bioengineered sphincter was stretched approximately 50% of its resting length using a three-axis micromanipulator. The ring was allowed to sit for 20 minutes in order to reestablish a stable baseline level of force (Pb), which was measured as the average baseline passive force preceding stimulation. All force measurements were collected at 100 samples/second for 60 seconds and recorded using a computer with LabVIEW data acquisition software (National Instruments, Austin, Tex.). A median filter of rank 2 was applied to all raw force data before being stored to minimize digitization noise without causing a phase delay for rapidly changing forces. The peak isometric force (ΔP) was determined by subtracting the Pb from the total force values. Specific force (sΔP) was calculated by dividing ΔP by the CSA. Data analysis was done using LabVIEW and Microsoft Excel software programs. Each measurement was repeated at least three times and the mean value was recorded. Bioengineered sphincter rings using smooth muscle cells isolated from IAS of adult and old rats were generated as described in Example 2 to study the molecular mechanism of aging on sphincteric smooth muscle. […] This corresponds to the previously described acetylcholine-induced contraction of human IAS muscle strips (16, 17, 27). […] Phosphomimic-HSP27 was introduced into the sphincteric smooth muscle cells from old rats. […] To test this hypothesis on a physiological level, bioengineered sphincter rings were made from phosphomimic-HSP27 transfected-IAS smooth muscle cells of old rats and the contractile response was assessed.

[3] = test system: rat IAS cells; test: Acetylcholine-induced contraction of isolated sphincteric smooth muscle cells of adult and old rats; assay type: cell-based; settings: for cell population with less than 80 μM cell length: 30 second stimulation
Procedure: To determine the effect of acetylcholine on contraction of isolated muscle cells, acetylcholine (10^−7 M) was added to a suspension of isolated smooth muscle cells for 30 seconds or 4 minutes with untreated cells as controls. The reaction was stopped and cells were fixed by the addition of 0.1 ml of acrolein at a final concentration of 0.1%. Individual cell lengths were measured by computerized image micrometry (Bitar et al., Am J Physiol 242: G400-G407, 1982. Bitar et al., Science 216: 531-533, 1982). The length of cells in the control state or after addition of acetylcholine was obtained by measuring 30-50 cells encountered randomly in successive microscopic fields from each of three separate experiments. The contractile response is defined as the decrease in the average length of the cells counted and is expressed as the percent change from the control length. Acetylcholine-induced contraction of isolated sphincteric smooth muscle cells was defined as the percent decrease in cell length compared to control. […] In old rats, 10^−7M acetylcholine-induced contraction at 30 seconds was approximately 3-fold less forceful (12.8±4.4%) than adult rat cells. […] In addition, after acetylcholine-induced contraction, there was a preponderance of longer cells and in old rats (24% above 80 μm) when compared to adult counterparts (17% above 80).

[4] = test system: bioengineered colon smooth muscle rings; test: Isometric force of bioengineered colon smooth muscle rings; assay type: cell-based, rabbit
Procedure: To develop a three dimensional physiological model of the smooth muscle cells in vitro, isolated colonic smooth muscle cells were used. Smooth muscle cells isolated from the colon of rabbits were seeded in a fibrin-based tissue construct as described in detail in Example 2. In this construct, the smooth muscle cells migrated and self-assembled in circumferential alignment. As the cells proliferated, the fibrin gel shrunk and contracted around a 5 mm diameter SYLGARD mold, resulting in a 3-D cylindrical ring of colonic tissue (smooth muscle ring). […] Maximal ΔP induced by acetylcholine stimulation was 17.8 μN, resulting in a specific force (sΔP) of […].

[5] = test system: association of actin with myosin in sphincteric smooth muscle cells; test: Immunoprecipitation/immunoblot: acetylcholine-induced association of actin with myosin; assay type: cell-based, rat; settings: 0.1 μM acetylcholine
Procedure: as §1

CC(=O)OCC[N+](C)(C)C [acetylcholine]
acetylcholine-induced association of tropomyosin with HSP27 ([1]; adult rats, 30 seconds): 218.67±5.48% | acetylcholine-induced association of tropomyosin with HSP27 ([1]; adult rats, 4 minutes): 268.39±6.38% | acetylcholine-induced association of tropomyosin with HSP27 ([1]; old rats, 30 sec): 149.93±8.60% | acetylcholine-induced association of tropomyosin with HSP27 ([1]; old rats, 4 minutes): 223.21±7.46% | maximum force of old rings, fold less than adult rings (FIG. 5 panel B) ([2]; 10^−6 M acetylcholine): approximately 3 fold | average ΔP / force generated ([2]; adult rat IAS rings, 10^−6 M acetylcholine): 8.925±2.4 μN | maximum force generated (FIG. 5 panel A) ([2]; adult rat rings, n=3): 10.4±1.27 | force generated ([2]; old rat IAS rings, 10^−6 M acetylcholine): 5.55±1.1 μN | maximum force generated (FIG. 5 panel A) ([2]; old rat rings, n=4): 5.5±1.09 | less force generated by old rings than adult rings ([2]; stimulated with acetylcholine): approximately 50% | fold less forceful contraction in old than adult rat cells ([3]; 10^−7 M acetylcholine, 30 seconds): approximately 3 fold | contraction, percent decrease in cell length compared to control ([3]; adult rat IAS cells, 10^−7 M acetylcholine, 30 seconds): 44.7±1.34% | contraction, percent decrease in cell length compared to control ([3]; adult rat IAS cells, 10^−7 M acetylcholine, 4 minutes): 40.65±1.43% | cell population with less than 80 μM cell length ([3]; adult rat IAS cells, 10^−7 M acetylcholine): 89% | longer cells above 80 after acetylcholine-induced contraction ([3]; adult rats): 17% | contraction, percent decrease in cell length compared to control ([3]; old rat IAS cells, 10^−7 M acetylcholine, 30 seconds): 12.8±4.4% | contraction, percent decrease in cell length compared to control ([3]; old rat IAS cells, 10^−7 M acetylcholine, 4 minutes): 16.99±6.07% | cell population with less than 80 μM cell length ([3]; old rat IAS cells, 10^−7 M acetylcholine): 71% | longer cells above 80 μm after acetylcholine-induced contraction ([3]; old rats): 24% | maximal ΔP induced by acetylcholine stimulation [4]: 17.8 μN | acetylcholine-induced association of actin with myosin ([5]; adult rats, 30 seconds): 243.70±8.20% | acetylcholine-induced association of actin with myosin ([5]; adult rats, 4 minutes): 274.34±10.43% | acetylcholine-induced association of actin with myosin ([5]; old rats, 30 sec): 175.32±10.12% | acetylcholine-induced association of actin with myosin ([5]; old rats, 4 minutes): 231.79±10.45%
